What was measured:
BACE1 = BACE1 (Homo sapiens, UniProt P56817); experiment: In vitro enzymatic BACE FRET (fluorescence resonance energy transfer) assay; type: biochemical
How it was run: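 Fluorescence (ex 488 nm, […]) was read after Tris addition raised pH to neutral, ending a one-hour incubation. Reaction started with 50 nM fluorophore/quencher peptide substrate in pH 4.2 acetate (0.05 M) containing 100 uM genapol and 10% DMSO final.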

[1] = test system: Cells stably expressing Amyloid Precursor Protein (APP); experiment: In vitro BACE cell-based assay (HEK cell assay): Aβ40 in conditioned medium by sandwich ELISA; details: Homo sapiens, HEK293, 24 h, Aβ40 in conditioned medium after 24 h incubation
How it was run: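 Secreted Aβ40 was quantified by time-resolved fluorescence sandwich ELISA, capturing with pAb40 for 3 h at 4 °C and detecting with biotinylated 6E10 for 2 h at 4 °C. Media came from APP-expressing cells exposed 24 h to compounds (10-point series from 100 or 10 μM, 0.1% DMSO); IC50 derived from percent of control.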

BACE1, sequence (P56817 46-501, species assumed): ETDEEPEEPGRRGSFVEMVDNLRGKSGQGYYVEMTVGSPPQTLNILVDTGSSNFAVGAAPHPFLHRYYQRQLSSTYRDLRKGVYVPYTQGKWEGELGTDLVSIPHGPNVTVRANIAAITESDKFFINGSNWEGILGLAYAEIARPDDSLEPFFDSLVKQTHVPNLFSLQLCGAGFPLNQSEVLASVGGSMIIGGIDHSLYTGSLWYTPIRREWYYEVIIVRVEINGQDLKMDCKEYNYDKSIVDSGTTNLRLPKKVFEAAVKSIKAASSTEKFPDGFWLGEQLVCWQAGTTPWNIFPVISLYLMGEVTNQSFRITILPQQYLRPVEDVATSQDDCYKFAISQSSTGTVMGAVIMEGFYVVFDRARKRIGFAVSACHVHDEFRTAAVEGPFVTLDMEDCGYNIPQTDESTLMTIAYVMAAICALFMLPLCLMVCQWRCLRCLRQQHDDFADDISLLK

Compound	IC50 (BACE1)	IC50 [1]
C=CC[C@H](NC(=O)c1cccs1)[C@H](O)CN[C@H]1CC2(CCC2)Oc2ncc(CC(C)(C)C)cc21 [Example 128, N-((1S)-1-((1R)-2-(((4′S)-6′-(2,2-dimethylpropyl)-3′,4′-dihydrospiro[cyclobutane-1,2′-pyrano[2,3-b]pyridin]-4′-yl)amino)-1-hydroxyethyl)-3-buten-1-yl)-2-thiophenecarboxamide]	0.169 µM	1.32 µM
C=CC[C@H](NC(=O)c1cocn1)[C@H](O)CN[C@H]1CC2(CCC2)Oc2ncc(CC(C)(C)C)cc21 [Example 129, N-((1S)-1-((1R)-2-(((4′S)-6′-(2,2-dimethylpropyl)-3′,4′-dihydrospiro[cyclobutane-1,2′-pyrano[2,3-b]pyridin]-4′-yl)amino)-1-hydroxyethyl)-3-buten-1-yl)-1,3-oxazole-4-carboxamide]	0.226 µM	1.04 µM
C=CC[C@H](NC(=O)c1ccns1)[C@H](O)CN[C@H]1CC2(CCC2)Oc2ncc(CC(C)(C)C)cc21 [Example 130, N-((1S)-1-((1R)-2-(((4′S)-6′-(2,2-dimethylpropyl)-3′,4′-dihydrospiro[cyclobutane-1,2′-pyrano[2,3-b]pyridin]-4′-yl)amino)-1-hydroxyethyl)-3-buten-1-yl)-5-isothiazolecarboxamide]	0.094 µM	0.19 µM
C=CC[C@H](NC(=O)c1cncn1C)[C@H](O)CN[C@H]1CC2(CCC2)Oc2ncc(CC(C)(C)C)cc21 [Example 131, N-((1S)-1-((1R)-2-(((4′S)-6′-(2,2-dimethylpropyl)-3′,4′-dihydrospiro[cyclobutane-1,2′-pyrano[2,3-b]pyridin]-4′-yl)amino)-1-hydroxyethyl)-3-buten-1-yl)-1-methyl-1H-imidazole-5-carboxamide]	0.372 µM	0.065 µM
C=CC[C@H](NC(=O)c1ccn(C)n1)[C@H](O)CN[C@H]1CC2(CCC2)Oc2ncc(CC(C)(C)C)cc21 [Example 132, N-((1S)-1-((1R)-2-(((4′S)-6′-(2,2-dimethylpropyl)-3′,4′-dihydrospiro[cyclobutane-1,2′-pyrano[2,3-b]pyridin]-4′-yl)amino)-1-hydroxyethyl)-3-buten-1-yl)-1-methyl-1H-pyrazole-3-carboxamide]	0.302 µM	0.418 µM
C=CC[C@H](NC(=O)c1nccs1)[C@H](O)CN[C@H]1CC2(CCC2)Oc2ncc(CC(C)(C)C)cc21 [Example 133, N-((1S)-1-((1R)-2-(((4′S)-6′-(2,2-dimethylpropyl)-3′,4′-dihydrospiro[cyclobutane-1,2′-pyrano[2,3-b]pyridin]-4′-yl)amino)-1-hydroxyethyl)-3-buten-1-yl)-1,3-thiazole-2-carboxamide]	0.106 µM	0.167 µM
C=CC[C@H](NC(=O)c1cscn1)[C@H](O)CN[C@H]1CC2(CCC2)Oc2ncc(CC(C)(C)C)cc21 [Example 134, N-((1S)-1-((1R)-2-(((4′S)-6′-(2,2-dimethylpropyl)-3′,4′-dihydrospiro[cyclobutane-1,2′-pyrano[2,3-b]pyridin]-4′-yl)amino)-1-hydroxyethyl)-3-buten-1-yl)-1,3-thiazole-4-carboxamide]	0.13 µM	0.664 µM
C=CC[C@H](NC(=O)c1csc(F)c1)[C@H](O)CN[C@H]1CC2(CCC2)Oc2ncc(CC(C)(C)C)cc21 [Example 135, N-((1S)-1-((1R)-2-(((4′S)-6′-(2,2-dimethylpropyl)-3′,4′-dihydrospiro[cyclobutane-1,2′-pyrano[2,3-b]pyridin]-4′-yl)amino)-1-hydroxyethyl)-3-buten-1-yl)-5-fluoro-3-thiophenecarboxamide]	0.137 µM	1.3 µM
C=CC[C@H](NC(=O)C(C)(F)F)[C@H](O)CN[C@H]1CC2(CCC2)Oc2ncc(CC(C)(C)C)cc21 [Example 136, N-((1S)-1-((1R)-2-(((4′S)-6′-(2,2-dimethylpropyl)-3′,4′-dihydrospiro[cyclobutane-1,2′-pyrano[2,3-b]pyridin]-4′-yl)amino)-1-hydroxyethyl)-3-buten-1-yl)-2,2-difluoropropanamide]	0.037 µM	0.342 µM

Source: patent US8633315B2, “Substituted hydroxyethyl amine compounds as beta-secretase modulators and methods of use” (Amgen Inc., priority 2007, dated 2014)
